Test results from PubChem BioAssay (NCI).
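Growth conditions: 96-well plates. Treatment: test compound, 48 hours, 5 concentrations. Analysis: linear interpolation between bracketing concentrations; unreached endpoints set to highest concentration. TGI: total growth inhibition.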 Where a SMILES comes first, the peptide text is derived from it. [ ]: non-standard residue; d: D form. Phe(4-NO2) = N[CH](Cc1ccc([N+](=O)[O-])cc1)C(=O)O

Tests used:
Test in all cases: NCI anticancer screen, dose series, 48 h
[1] = tested on: MDA-MB-231 breast
[2] = tested on: A498 renal
[3] = tested on: ACHN renal
[4] = tested on: DU-145 prostate
[5] = tested on: HOP-92 NSCLC
[6] = tested on: UACC-257 melanoma
[7] = tested on: K-562 leukemia
[8] = tested on: TK-10 renal
[9] = tested on: SF-295 CNS
[10] = tested on: OVCAR-4 ovarian
[11] = tested on: SK-MEL-5 melanoma
[12] = tested on: CCRF-CEM leukemia
[13] = tested on: LOX IMVI melanoma
[14] = tested on: SNB-19 CNS
[15] = tested on: RXF 393 renal
[16] = tested on: U251 CNS
[17] = tested on: NCI-H522 lung
[18] = tested on: HS 578T breast
[19] = tested on: NCI/ADR-RES ovarian
[20] = tested on: A549 NSCLC

| Structure (SMILES) | TGI [1] | TGI [2] | TGI [3] | TGI [4] | TGI [5] | TGI [6] | TGI [7] | TGI [8] | TGI [9] | TGI [10] | TGI [11] | TGI [12] | TGI [13] | TGI [14] | TGI [15] | TGI [16] | TGI [17] | TGI [18] | TGI [19] | TGI [20] |
| --- | --- | --- | --- | --- | --- | --- | --- | --- | --- | --- | --- | --- | --- | --- | --- | --- | --- | --- | --- | --- |
| O=C(O)c1cc2c(cc1CC(Cc1ccc3c(c1)CCCC3)C(=O)O)CCCC2 (stereo not given) | > 100 µM | > 100 µM | > 100 µM | > 100 µM | > 100 µM | > 100 µM | > 100 µM | > 100 µM | > 100 µM | 0.758 µM | > 100 µM | > 100 µM | > 100 µM | > 100 µM | > 100 µM | > 100 µM | > 100 µM | > 100 µM | > 100 µM | > 100 µM |
| CC(=O)OCC1OC(n2c3c(cc(C#N)c2=S)CCC3)C(OC(C)=O)C(OC(C)=O)C1OC(C)=O (stereo not given) | > 100 µM | > 100 µM | > 100 µM | > 100 µM | > 100 µM | > 100 µM | > 100 µM | > 100 µM | > 100 µM | > 100 µM | > 100 µM | > 100 µM | > 100 µM | > 100 µM | > 100 µM | > 100 µM | > 100 µM | > 100 µM | > 100 µM | > 100 µM |
| O=C(SC1=NCCN1)c1cccc2ccccc12 | > 100 µM | > 100 µM | > 100 µM | > 100 µM | > 100 µM | 95.9 µM | 73.5 µM | > 100 µM | > 100 µM | > 100 µM | > 100 µM | 70.1 µM | > 100 µM | > 100 µM | > 100 µM | > 100 µM | 74.9 µM | > 100 µM | > 100 µM | > 100 µM |
| CCOC(=O)CCSc1nc2ccc(I)cc2c(=O)n1Cc1ccccc1 | > 100 µM | > 79.2 µM | > 83 µM | > 100 µM | 53.5 µM | > 92.2 µM | > 100 µM | > 88.2 µM | > 73.3 µM | > 77.1 µM | 32 µM | 67.4 µM | > 77.3 µM | > 100 µM | > 100 µM | > 100 µM | 52.5 µM | > 81.9 µM | > 60.3 µM | > 100 µM |
| CC(NC(=O)C(Cc1ccc([N+](=O)[O-])cc1)NC(=O)C(N)CCCCN)C(=O)NC(Cc1ccc([N+](=O)[O-])cc1)C(N)=O (stereo not given) (H-K[Phe(4-NO2)]A[Phe(4-NO2)]-NH2; configuration not given here) | > 69.9 µM | > 100 µM | > 100 µM | > 100 µM | 70.5 µM | > 84.7 µM | > 55.3 µM | > 100 µM | > 70.9 µM | > 100 µM | 51.5 µM | > 100 µM | > 100 µM | > 100 µM | > 100 µM | > 100 µM | > 44.4 µM | 99.6 µM | > 100 µM | > 97 µM |
| CN(C)CCCNC(=O)CCNC(=O)c1cc(NC(=O)c2cc(NC(=O)c3cc(NC(=O)c4nccn4C)cn3C)cn2C)cn1C | > 100 µM | > 100 µM | > 100 µM | > 100 µM | > 100 µM | > 100 µM | > 100 µM | > 100 µM | > 100 µM | > 20.3 µM | > 100 µM | > 100 µM | > 100 µM | > 100 µM | > 100 µM | > 100 µM | 97 µM | > 100 µM | > 100 µM | > 100 µM |
| C=C/C(C)=C\CC1[C@](C)(O)CC[C@H]2C(C)(C)C(O)CC[C@]12C (stereo not given in full) | > 100 µM | > 100 µM | > 100 µM | > 100 µM | > 100 µM | > 100 µM | > 100 µM | > 100 µM | > 100 µM | > 100 µM | > 100 µM | > 100 µM | > 100 µM | > 100 µM | > 100 µM | > 100 µM | > 100 µM | > 100 µM | > 100 µM | > 100 µM |
| N#Cc1cc([N+](=O)[O-])ccc1NC(=O)/C(=N\NC(=O)c1ccncc1)C(c1cnc2ccc([N+](=O)[O-])cc2n1)[N+](=O)[O-] (stereo not given) | 5.36 µM | 17.7 µM | 9.14 µM | 11.8 µM | 22.6 µM | 3.05 µM | 6.4 µM | 28.3 µM | 4 µM | 5.76 µM | 2.14 µM | 25.6 µM | 2.23 µM | 8.16 µM | 10.8 µM | 6.63 µM | 3.46 µM | 6.23 µM | 37 µM | 15.8 µM |
| C[C@]12CC[C@H]3[C@@H](CC=C4C[C@@H](O)CC[C@@]43C)[C@@H]1C/C(=C/c1ccccc1)[C@@H]2O | > 76.9 µM | 35.8 µM | > 61.4 µM | > 64.2 µM | > 69.6 µM | 45.4 µM | > 100 µM | > 53.3 µM | > 65.9 µM | > 73.2 µM | > 100 µM | > 100 µM | > 50.2 µM | > 56.5 µM | > 57 µM | > 50.5 µM | > 100 µM | 98 µM | > 89.1 µM | > 51.5 µM |
| O[C@H]1[C@H](O)[C@@H](O)[C@@]2(O)CC[C@@H]1N2 | > 100 µM | > 100 µM | > 100 µM | > 100 µM | > 100 µM | > 100 µM | > 100 µM | > 100 µM | > 100 µM | > 100 µM | > 100 µM | > 100 µM | > 100 µM | > 100 µM | > 100 µM | > 100 µM | > 100 µM | > 100 µM | > 100 µM | > 100 µM |
| O=C1/C(=C/c2ccco2)N=C2Sc3c(nc[nH]c3=O)N12 | > 100 µM | > 100 µM | > 100 µM | > 100 µM | > 100 µM | > 100 µM | > 100 µM | > 100 µM | > 100 µM | > 100 µM | > 100 µM | > 100 µM | > 100 µM | > 100 µM | > 100 µM | > 100 µM | > 100 µM | > 100 µM | > 100 µM | > 100 µM |
| C=CCN1C[C@H](C)N([C@@H](c2ccc(C(=O)N3CCCCC3)cc2)c2cccc(OC)c2)C[C@H]1C | > 100 µM | > 100 µM | > 100 µM | > 100 µM | > 100 µM | 50 µM | 60.8 µM | > 100 µM | > 100 µM | > 100 µM | 33.6 µM | 70.4 µM | > 100 µM | > 100 µM | > 100 µM | > 100 µM | 55 µM | > 100 µM | > 100 µM | > 100 µM |
| Nc1ccc(Oc2ccc(C3(c4ccc(Oc5ccc(N)cc5)cc4)C4CC5CC(C4)CC3C5)cc2)cc1 | 37.6 µM | 9.36 µM | > 62.9 µM | > 53.5 µM | 35.9 µM | > 100 µM | > 100 µM | > 92.4 µM | 73.8 µM | > 74 µM | > 100 µM | 35.8 µM | > 28.4 µM | > 100 µM | 20.9 µM | 21.5 µM | > 59.7 µM | > 100 µM | > 100 µM | 42.2 µM |
| CN(C)CCCSc1nc2c(c(=N)n1-c1ccccc1)c(=S)n(-c1ccccc1)c(=S)n2-c1ccccc1 | 3.03 µM | 4.89 µM | 3.22 µM | 3.04 µM | 3.24 µM | 3.32 µM | 3.81 µM | 3.09 µM | 10.6 µM | 3.42 µM | 3.79 µM | 2.41 µM | 2.87 µM | 8.14 µM | 3.06 µM | 3.19 µM | 3.42 µM | > 100 µM | 7.38 µM | 4.58 µM |
| CC(=NNC(=S)Nc1cccc(C)c1)c1cccc(C(C)=NNC(=S)Nc2cccc(C)c2)n1 | 59.9 µM | 61.6 µM | 46.4 µM | > 100 µM | 63.2 µM | 0.0745 µM | > 100 µM | 61.5 µM | 34 µM | 38.5 µM | 30.8 µM | > 100 µM | 85.3 µM | > 100 µM | 61.1 µM | 93.3 µM | 57.9 µM | > 100 µM | 76.6 µM | 87.1 µM |
| Cc1occc1C(=S)Nc1ccc(Cl)c(/C=N/OC(C)(C)C)c1 | 42.3 µM | 40.2 µM | 30.6 µM | 48.7 µM | 26.5 µM | 31.7 µM | > 100 µM | 49.8 µM | 28.5 µM | 45 µM | 33.4 µM | 53.4 µM | 29.2 µM | 40.6 µM | 31.1 µM | 28.5 µM | 24.8 µM | 51.6 µM | 32.7 µM | 38.6 µM |
